Data reported in PMC9780108, “An intrinsically disordered antimicrobial peptide dendrimer from stereorandomized virtual screening” (Cell Reports. Physical Science, 2022).
≈ marks a conversion by molar mass, not a printed value. Positions of bridges follow the written chain, without caps; N, C: chain ends. Non-standard residues stand in square brackets, D forms with d. Residues, ends and D or L forms follow the SMILES beside them. Groups on a side chain read outwards from the residue. Chains are numbered I, II in the order given. *: point of attachment. X4 = CC(C)C[C@@H](NC(=O)CCCCCN)C(=O)NCCCC[C@@H](NC(=O)[C@@H](CC(C)C)NC(=O)CCCCCN)C(=O)*; X3 = CC(C)C[C@H](NC(=O)CCCCCN)C(=O)NCCCC[C@H](NC(=O)[C@H](CC(C)C)NC(=O)CCCCCN)C(=O)*; Ahx = NCCCCCC(=O)O

How the values were obtained:
[1] = tested on: HEK293 cell line; type: cell-based; conditions: 48 h
Description: HEK 293 cell line were cultured and maintained in DMEM (Dulbeccos modified Eagle
medium, Sigma Aldrich) supplemented with 10% FBS (Sigma Aldrich) and 1%
penicillin/streptomycin. Cells were incubated in a humidified incubator at 37°C in the presence
HEK 293 cell were seeded into 96 well plates at the density of 2 × 10^3 cells/well and incubated
in DMEM containing 10% FBS for 10-14 hours at 37°C in the presence of 5% CO2. The next
day, stock solution of compounds were prepared at concentration of 2 mg/mL in DMEM
containing 10% FBS. 1/2 or 1/3 serial dilution of the peptide dendrimers from 2 mg/mL or 200
µg/mL were performed in DMEM containing 10% FBS. The medium was removed from cell
culture and replaced with the compounds at different concentration after washing with PBS.
The cells were incubated in DMEM containing 10% FBS at 37°C in the presence of 5% CO 2.
Negative control was untreated cell culture without compounds and blank control was wells
without cell but only medium. After 48 hours, a final concentration of 10% AlamarBlue®
(Thermo Fisher Scientific, Reinach, CH) was added to each well . The cells were incubated for
3-5 hours at 37°C with 5% CO 2. The fluorescence was then measured on a Tecan Infinite
M1000 Pro plate reader at λex = 560 nm and λem = 590 nm. The value was normalized
according to the untreated cells.

[2] = tested on: E. coli W3110; conditions: for MIC at pH 5.0, E. coli W3110: W3110, pH 5; for MIC at pH 7.4, E. coli W3110: W3110, pH 7.4; for MIC at pH 8.0, E. coli W3110: W3110, pH 8
[3] = tested on: A. baumannii ATCC 19606; conditions: for MIC at pH 5.0, A. baumannii ATCC 19606: ATCC 19606, pH 5; for MIC at pH 7.4, A. baumannii ATCC 19606: ATCC 19606, pH 7.4; for MIC at pH 8.0, A. baumannii ATCC 19606: ATCC 19606, pH 8
[4] = tested on: P. aeruginosa PAO1; conditions: for MIC at pH 5.0, P. aeruginosa PAO1: PAO1, pH 5; for MIC at pH 7.4, P. aeruginosa PAO1: PAO1, pH 7.4; for MIC at pH 8.0, P. aeruginosa PAO1: PAO1, pH 8
[5] = tested on: K. pneumoniae NCTC 418; conditions: for MIC at pH 5.0, K. pneumoniae NCTC 418: NCTC 418, pH 5; for MIC at pH 7.4, K. pneumoniae NCTC 418: NCTC 418, pH 7.4; for MIC at pH 8.0, K. pneumoniae NCTC 418: NCTC 418, pH 8
[6] = tested on: S aureus COL (methicillin-resistant Staphylococcus aureus); conditions: for MIC at pH 5.0, S aureus COL: COL (methicillin-resistant, pH 5); for MIC at pH 7.4, S aureus COL: COL (methicillin-resistant, pH 7.4); for MIC at pH 8.0, S aureus COL: COL (methicillin-resistant, pH 8)

SMILES	IC50 HEK293 [1] [mg/L]	MIC at pH 5.0, E. coli W3110 [2]	MIC at pH 7.4, E. coli W3110 [2]	MIC at pH 8.0, E. coli W3110 [2]	MIC at pH 5.0, A. baumannii ATCC 19606 [3]	MIC at pH 7.4, A. baumannii ATCC 19606 [3]	MIC at pH 8.0, A. baumannii ATCC 19606 [3]	MIC at pH 5.0, P. aeruginosa PAO1 [4]	MIC at pH 7.4, P. aeruginosa PAO1 [4]	MIC at pH 8.0, P. aeruginosa PAO1 [4]	MIC at pH 5.0, K. pneumoniae NCTC 418 [5]	MIC at pH 7.4, K. pneumoniae NCTC 418 [5]	MIC at pH 8.0, K. pneumoniae NCTC 418 [5]	MIC at pH 5.0, S aureus COL [6] [μg/mL]	MIC at pH 7.4, S aureus COL [6] [μg/mL]	MIC at pH 8.0, S aureus COL [6] [μg/mL]
CC(C)C[C@@H](NC(=O)CCCCCN)C(=O)NCCCC[C@@H](NC(=O)[C@@H](CC(C)C)NC(=O)CCCCCN)C(=O)N[C@H](CC(C)C)C(=O)NCCCC[C@@H](NC(=O)[C@@H](CC(C)C)NC(=O)[C@@H](CCCCNC(=O)[C@@H](CC(C)C)NC(=O)CCCCCN)NC(=O)[C@@H](CC(C)C)NC(=O)CCCCCN)C(=O)N[C@H](CCCCN)C(=O)N[C@H](CC(C)C)C(=O)N[C@H](CC(C)C)C(=O)NCCCC[C@@H](NC(=O)[C@@H](CC(C)C)NC(=O)[C@@H](CC(C)C)NC(=O)[C@@H](CCCCN)NC(=O)[C@@H](CCCCNC(=O)[C@@H](CC(C)C)NC(=O)[C@@H](CCCCNC(=O)[C@@H](CC(C)C)NC(=O)CCCCCN)NC(=O)[C@@H](CC(C)C)NC(=O)CCCCCN)NC(=O)[C@@H](CC(C)C)NC(=O)[C@@H](CCCCNC(=O)[C@@H](CC(C)C)NC(=O)CCCCCN)NC(=O)[C@@H](CC(C)C)NC(=O)CCCCCN)C(=O)N[C@H](CC(C)C)C(=O)N[C@H](CCCCN)C(=O)N[C@H](CCCCN)C(N)=O [D-aX22] (I: H-[Ahx][dL][dK]([dL-Ahx])[dL][dK]([dL-X4])[dK][dL][dL][dK][dL][dK][dK]-NH2 / II: H-[Ahx][dL][dK]([dL-Ahx])[dL][dK]([dL-X4])[dK][dL][dL]; amide I:9-II:C)	17 ± 2 (≈ 3.99 µM)	4 μg/mL	8 μg/mL	4 μg/mL	4/4/4 μg/mL	4/4/4 μg/mL	4/4/4 μg/mL	32 μg/mL	8 μg/mL	16 μg/mL	64 μg/mL	16 μg/mL	16 μg/mL	> 64	16	4
CC(C)C[C@H](NC(=O)[C@H](CC(C)C)NC(=O)[C@H](CCCCN)NC(=O)[C@H](CCCCNC(=O)[C@H](CC(C)C)NC(=O)[C@H](CC(C)C)NC(=O)[C@H](CCCCNC(=O)[C@H](CC(C)C)NC(=O)[C@H](CCCCN)NC(=O)[C@H](CCCCNC(=O)[C@H](CC(C)C)NC(=O)[C@@H](N)CCCCN)NC(=O)[C@H](CC(C)C)NC(=O)[C@@H](N)CCCCN)NC(=O)[C@H](CC(C)C)NC(=O)[C@H](CCCCN)NC(=O)[C@H](CCCCNC(=O)[C@H](CC(C)C)NC(=O)[C@@H](N)CCCCN)NC(=O)[C@H](CC(C)C)NC(=O)[C@@H](N)CCCCN)NC(=O)[C@H](CC(C)C)NC(=O)[C@H](CC(C)C)NC(=O)[C@H](CCCCNC(=O)[C@H](CC(C)C)NC(=O)[C@H](CCCCN)NC(=O)[C@H](CCCCNC(=O)[C@H](CC(C)C)NC(=O)[C@@H](N)CCCCN)NC(=O)[C@H](CC(C)C)NC(=O)[C@@H](N)CCCCN)NC(=O)[C@H](CC(C)C)NC(=O)[C@H](CCCCN)NC(=O)[C@H](CCCCNC(=O)[C@H](CC(C)C)NC(=O)[C@@H](N)CCCCN)NC(=O)[C@H](CC(C)C)NC(=O)[C@@H](N)CCCCN)C(N)=O [L-T25, reference compound] (HELM PEPTIDE1{K.L.K.K.L.K.L.L.K.K.L.L.[am]}|PEPTIDE2{K.L}|PEPTIDE3{K.L.K.K.L.K.L.L}|PEPTIDE4{K.L}|PEPTIDE5{K.L.K.K.L}|PEPTIDE6{K.L}|PEPTIDE7{K.L.K.K.L}|PEPTIDE8{K.L}$PEPTIDE1,PEPTIDE2,3:R3-2:R2|PEPTIDE3,PEPTIDE4,3:R3-2:R2|PEPTIDE5,PEPTIDE6,3:R3-2:R2|PEPTIDE7,PEPTIDE8,3:R3-2:R2|PEPTIDE1,PEPTIDE7,6:R3-5:R2|PEPTIDE1,PEPTIDE3,9:R3-8:R2|PEPTIDE3,PEPTIDE5,6:R3-5:R2$$$V2.0)	92 ± 3 (≈ 19.9 µM)	32 μg/mL	8 μg/mL	8 μg/mL	16 μg/mL	4 μg/mL	4 μg/mL	32 μg/mL	8 μg/mL	8 μg/mL	> 64 μg/mL	32 μg/mL	16 μg/mL	> 64	> 64	32
CC(C)C[C@H](NC(=O)[C@H](CC(C)C)NC(=O)[C@H](CC(C)C)NC(=O)[C@H](CCCCNC(=O)[C@H](CC(C)C)NC(=O)[C@H](CC(C)C)NC(=O)[C@H](CCCCNC(=O)[C@H](CCCCN)NC(=O)[C@H](CC(C)C)NC(=O)[C@H](CCCCNC(=O)[C@H](CC(C)C)NC(=O)[C@@H](N)CCCCN)NC(=O)[C@H](CC(C)C)NC(=O)[C@@H](N)CCCCN)NC(=O)[C@H](CCCCN)NC(=O)[C@H](CC(C)C)NC(=O)[C@H](CCCCNC(=O)[C@H](CC(C)C)NC(=O)[C@@H](N)CCCCN)NC(=O)[C@H](CC(C)C)NC(=O)[C@@H](N)CCCCN)NC(=O)[C@H](CC(C)C)NC(=O)[C@H](CC(C)C)NC(=O)[C@H](CCCCNC(=O)[C@H](CCCCN)NC(=O)[C@H](CC(C)C)NC(=O)[C@H](CCCCNC(=O)[C@H](CC(C)C)NC(=O)[C@@H](N)CCCCN)NC(=O)[C@H](CC(C)C)NC(=O)[C@@H](N)CCCCN)NC(=O)[C@H](CCCCN)NC(=O)[C@H](CC(C)C)NC(=O)[C@H](CCCCNC(=O)[C@H](CC(C)C)NC(=O)[C@@H](N)CCCCN)NC(=O)[C@H](CC(C)C)NC(=O)[C@@H](N)CCCCN)C(N)=O [L-X18] (HELM PEPTIDE1{K.L.K.L.K.K.L.L.K.L.L.L.[am]}|PEPTIDE2{K.L}|PEPTIDE3{K.L.K.L.K.K.L.L}|PEPTIDE4{K.L}|PEPTIDE5{K.L.K.L.K}|PEPTIDE6{K.L}|PEPTIDE7{K.L.K.L.K}|PEPTIDE8{K.L}$PEPTIDE1,PEPTIDE2,3:R3-2:R2|PEPTIDE3,PEPTIDE4,3:R3-2:R2|PEPTIDE5,PEPTIDE6,3:R3-2:R2|PEPTIDE7,PEPTIDE8,3:R3-2:R2|PEPTIDE1,PEPTIDE7,6:R3-5:R2|PEPTIDE1,PEPTIDE3,9:R3-8:R2|PEPTIDE3,PEPTIDE5,6:R3-5:R2$$$V2.0)	52 ± 4 (≈ 11.3 µM)	16/16/16 μg/mL	16/16/16 μg/mL	16/16/16 μg/mL	16 μg/mL	32 μg/mL	16 μg/mL	16 μg/mL	32 μg/mL	16 μg/mL	> 64 μg/mL	> 64 μg/mL	32 μg/mL	> 64	> 64	16
CC(C)C[C@H](NC(=O)[C@H](CC(C)C)NC(=O)[C@H](CC(C)C)NC(=O)[C@H](CCCCNC(=O)[C@H](CC(C)C)NC(=O)[C@H](CC(C)C)NC(=O)[C@H](CCCCNC(=O)[C@H](CCCCN)NC(=O)[C@H](CC(C)C)NC(=O)[C@H](CCCCNC(=O)[C@H](CC(C)C)NC(=O)CCCCCN)NC(=O)[C@H](CC(C)C)NC(=O)CCCCCN)NC(=O)[C@H](CCCCN)NC(=O)[C@H](CC(C)C)NC(=O)[C@H](CCCCNC(=O)[C@H](CC(C)C)NC(=O)CCCCCN)NC(=O)[C@H](CC(C)C)NC(=O)CCCCCN)NC(=O)[C@H](CC(C)C)NC(=O)[C@H](CC(C)C)NC(=O)[C@H](CCCCNC(=O)[C@H](CCCCN)NC(=O)[C@H](CC(C)C)NC(=O)[C@H](CCCCNC(=O)[C@H](CC(C)C)NC(=O)CCCCCN)NC(=O)[C@H](CC(C)C)NC(=O)CCCCCN)NC(=O)[C@H](CCCCN)NC(=O)[C@H](CC(C)C)NC(=O)[C@H](CCCCNC(=O)[C@H](CC(C)C)NC(=O)CCCCCN)NC(=O)[C@H](CC(C)C)NC(=O)CCCCCN)C(N)=O [L-aX18] (I: H-[Ahx]LK([Leu-Ahx])LKK([Lys-Leu-X3])LLKLLL-NH2 / II: H-[Ahx]LK([Leu-Ahx])LKK([Lys-Leu-X3])LL; amide I:9-II:C)	14 ± 0.6 (≈ 3.12 µM)	32 μg/mL	> 64 μg/mL	32 μg/mL	32 μg/mL	64 μg/mL	32 μg/mL	64/>64/64 μg/mL	64/>64/64 μg/mL	64/>64/64 μg/mL	>64/>64/>64 μg/mL	>64/>64/>64 μg/mL	>64/>64/>64 μg/mL	> 64	> 64	32
